Holding throughout (format): in vivo
The subject of experiment [1] is beet armyworm (Spodoptera exigua). In words: Insecticidal test for beet armyworm (treated lepidopteran diet). As to conditions: 2nd instar larvae, 5 days, rating of % Control; for pest or weed control at 400 ppm: Spodoptera exigua, 120 h, read-out: BAW, activity at 400 ppm against beet armyworm. On the procedure:
(§1) Insecticidal test for tobacco budworm (Heliothis virescens), beet armyworm (Spodoptera exigua), and cabbage looper (Trichoplusia ni).
(§2) To prepare test solution, the test compound was formulated at 400 ppm in 7.5 mL of 2 acetone: 1 tap water. 250 µL of the test solution was pipetted upon the surface of 8 mL of lepidopteran diet (modified Shorey) contained in each of five one-ounce plastic cups (one cup = 1 replication). […] After airdrying, the treated leaf discs were placed individually into one-ounce plastic cups. Each dried, treated cotton cotyledon disc was infested with a 2nd instar tobacco budworm larva, and each cabbage leaf disc was infested with a 2nd instar cabbage looper larva. Cups containing the treated substrates and larvae were capped and then held in a growth chamber at 25 °C, 50-55% RH, and 14 hr light: 10 hr dark for 5 days.

For experiment [2], the system named is tobacco budworm (Heliothis virescens). In words: Insecticidal test for tobacco budworm (leaf-dip, cotton cotyledon discs). As to conditions: dipped cotton cotyledon discs, 2nd instar larvae, 5 days, rating of % Control; for pest or weed control at 400 ppm: Heliothis virescens, 120 h, read-out: TBW, activity at 400 ppm against tobacco budworm. As for the experimental part:
as §1, §2

Experiment [3] relates to cabbage looper (Trichoplusia ni). In words: Insecticidal test for cabbage looper (leaf-dip, cabbage leaf discs). Particulars: dipped cabbage leaf discs, 2nd instar larvae, 5 days, rating of % Control; for pest or weed control at 400 ppm: Trichoplusia ni, foliar, 120 h, read-out: CL, activity at 400 ppm against cabbage looper. On the procedure:
as §1, §2

For experiment [4], the system named is two-spotted spider mite (Tetranychus urticae). In words: Insecticidal test for two-spotted spider mite, ovicide method. As to conditions: for pest or weed control: Tetranychus urticae, read-out: SM, activity against two-spotted spider mite. As for the experimental part:
Insecticidal test for two-spotted spider mite (Tetranychus urticae)
Ten adult female two-spotted spider mites were placed on eight 2.2 cm leaf discs of cotton leaf, allowed to oviposit over 24 hours, and thereafter removed. […] Discs were placed on an agar substrate and held at 24 °C and 90% RH for 6 days.

Where [5] appears, read: foliar, 144 h, ovicide method, cotton leaf discs, 6 days, rating of % Control.

14 compounds from patent EP1397353B1, “2-(2,6-DISUBSTITUTED PHENYL)-4-ARYL-5-ALKYL-1,3-OXAZOLINE COMPOUNDS USEFUL AS INSECTICIDES AND ACARICIDES” (Dow AgroSciences LLC, priority 2001, dated 2003) can be followed below.

For the compound `C[C@@H]1OC(c2c(F)cccc2F)=N[C@H]1c1ccc(-c2ccc(F)cc2)cc1` (mixture of isomers) [Compound 25, (4S,5S)- and (4R,5R)-2-(2,6-difluorophenyl)-4-(4'-fluoro-1,1'-biphenyl-4-yl)-5-methyl-4,5-dihydro-1,3-oxazole], the pest or weed control at 400 ppm in experiment [1], in experiment [2] and in experiment [3] was 90 to 100% in each case. Also, the pest or weed control in experiment [4] (setting [5]) was 90 to 100%.

For the compound `C[C@@H]1OC(c2c(F)cccc2F)=N[C@H]1c1ccc(-c2ccc(C(F)(F)F)cc2)cc1` (mixture of isomers) [Compound 26, (4S,5S)- and (4R,5R)-2-(2,6-difluorophenyl)-5-methyl-4-[4'-(trifluoromethyl)-1,1'-biphenyl-4-yl]-4,5-dihydro-1,3-oxazole], the pest or weed control at 400 ppm in experiment [1], in experiment [2] and in experiment [3] was 90 to 100% each time. Moreover, in experiment [4] (setting [5]), the pest or weed control lay within 90 to 100%.

For the compound `C[C@@H]1OC(c2c(F)cccc2F)=N[C@H]1c1ccc(-c2cccc(C(F)(F)F)c2)cc1` (mixture of isomers) [Compound 28, (4S,5S)- and (4R,5R)-2-(2,6-difluorophenyl)-5-methyl-4-[3'-(trifluoromethyl)-1,1'-biphenyl-4-yl]-4,5-dihydro-1,3-oxazole], the pest or weed control at 400 ppm in experiment [1], in experiment [2] and in experiment [3] was 90 to 100% throughout. Also, in experiment [4] (setting [5]), the pest or weed control lay in the range of 90 to 100%.

On to `Cc1ccc(-c2ccc([C@@H]3N=C(c4c(F)cccc4F)O[C@H]3C)cc2)cc1C` (mixture of isomers) [Compound 29, (4S,5S)- and (4R,5R)-2-(2,6-difluorophenyl)-4-(3',4'-dimethyl-1,1'-biphenyl-4-yl)-5-methyl-4,5-dihydro-1,3-oxazole], for which the values for the pest or weed control at 400 ppm in experiment [1], in experiment [2] and in experiment [3] were 60 to 69%, below 50% and 90 to 100%, respectively.

With `C[C@@H]1OC(c2c(F)cccc2F)=N[C@H]1c1ccc(-c2ccccc2F)cc1` (mixture of isomers) [Compound 31, (4S,5S)- and (4R,5R)-2-(2,6-difluorophenyl)-4-(2'-fluoro-1,1'-biphenyl-4-yl)-5-methyl-4,5-dihydro-1,3-oxazole], the pest or weed control at 400 ppm in experiment [1] is below 50%; in experiment [2], below 50%; in experiment [3], 90 to 100%. Besides, the pest or weed control in experiment [4] (setting [5]) was 90 to 100%.

For `CCOc1ccc(-c2ccc([C@@H]3N=C(c4c(F)cccc4F)O[C@H]3C)cc2)cc1` (mixture of isomers) [Compound 33, (4S,5S)- and (4R,5R)-2-(2,6-difluorophenyl)-4-(4'-ethoxy-1,1'-biphenyl-4-yl)-5-methyl-4,5-dihydro-1,3-oxazole], the pest or weed control at 400 ppm in experiment [1] fell in the range of 90 to 100%; in experiment [2], 80 to 89%; in experiment [3], 90 to 100%. For the same compound, the pest or weed control in experiment [4] (setting [5]) is 80 to 89%.

Take `Cc1ccc(-c2ccc([C@@H]3N=C(c4c(F)cccc4F)O[C@H]3C)cc2)cc1` (mixture of isomers) [Compound 36, (4S,5S)- and (4R,5R)-2-(2,6-difluorophenyl)-5-methyl-4-(4'-methyl-1,1'-biphenyl-4-yl)-4,5-dihydro-1,3-oxazole]: the pest or weed control at 400 ppm is below 50% in experiment [1], below 50% in experiment [2] and 90 to 100% in experiment [3].

On to `C[C@@H]1OC(c2c(F)cccc2F)=N[C@H]1c1ccc(-c2ccc(Cl)cc2)cc1` (mixture of isomers) [Compound 37, (4S,5S)- and (4R,5R)-4-(4'-chloro-1,1'-biphenyl-4-yl)-2-(2,6-difluorophenyl)-5-methyl-4,5-dihydro-1,3-oxazole], for which the pest or weed control at 400 ppm in experiment [1], in experiment [2] and in experiment [3] was 90 to 100% in each case.

In the case of `CCOc1ccc(-c2ccc([C@H]3N=C(c4c(F)cccc4F)O[C@H]3C)c(C)c2)cc1` (mixture of isomers) [Compound 41, (4R,5S)- and (4S,5R)-2-(2,6-difluorophenyl)-4-(4'-ethoxy-3-methyl-1,1'-biphenyl-4-yl)-5-methyl-4,5-dihydro-1,3-oxazole], the pest or weed control at 400 ppm in experiment [1], in experiment [2] and in experiment [3] was 90 to 100% throughout. The pest or weed control in experiment [4] (setting [5]) lay in the range of 60 to 69%.

As for `CCOc1ccc(-c2ccc([C@@H]3N=C(c4c(F)cccc4F)O[C@H]3C)c(C)c2)cc1` (mixture of isomers) [Compound 45, (4S,5S)- and (4R,5R)-2-(2,6-difluorophenyl)-4-(4'-ethoxy-3-methyl-1,1'-biphenyl-4-yl)-5-methyl-4,5-dihydro-1,3-oxazole], the pest or weed control at 400 ppm in experiment [1], in experiment [2] and in experiment [3] was 90 to 100% throughout. The pest or weed control in experiment [4] (setting [5]) was below 50%.

Regarding `C[C@@H]1OC(c2c(F)cccc2F)=N[C@@H]1c1ccc(-c2ccc(C(F)(F)F)cc2)cc1` (racemic) [Compound 5, (4R,5S)- and 4S,5R)-2-(2,6-difluorophenyl)-5-methyl-4-(4'-(trifluoromethyl)-1,1'-biphenyl-4-yl]-4,5-dihvdro-1,3-oxazole], in experiment [1], the “BAW, activity at 400 ppm against beet armyworm” value (“BAW, activity at 400 ppm” below) is recorded as “A (90-100)”. Besides, in experiment [3], the “CL, activity at 400 ppm against cabbage looper” value (“CL, activity at 400 ppm” below) was “A (90-100)”. The “SM, activity at 2.5 ppm against two-spotted spider mite” value (“SM, activity at 2.5 ppm” for short) in experiment [4] (foliar, 144 h) was “A (90-100)”.

Consider `CCOc1ccc(-c2ccc([C@H]3N=C(c4c(F)cccc4F)O[C@H]3C)cc2)cc1` (racemic) [Compound 12, (4R,5S)- and (4S,5R)-2-(2,6-difluorophenyl)-4-(4'-ethoxy-1,1'-bphenyl-4-yl)-5-methyl-4,5-dihydro-1,3-oxazole], for which the “BAW, activity at 400 ppm” value in experiment [1] is recorded as “A (90-100)”. Further, the “TBW, activity at 400 ppm against tobacco budworm” value in experiment [2] is recorded as “B (80-89)”. In addition, in experiment [3], the “CL, activity at 400 ppm” value is listed as “A (90-100)”.

On to `C[C@@H]1OC(c2c(F)cccc2F)=N[C@H]1c1ccc(-c2ccc(OC(F)(F)F)cc2)cc1` [Compound 47], for which the “BAW, activity at 400 ppm” value in experiment [1] is recorded as “A (90-100)”. Besides, the “CL, activity at 400 ppm” value in experiment [3] is “A (90-100)”. Further, in experiment [4] (foliar, 144 h), the “SM, activity at 2.5 ppm” value is recorded as “A (90-100)”.

In the case of “(4R,5R)- and (4S,5S)-4-(4-bromophenyl)-2-(2-chloro-6-fluorophenyl)-5-methyl-4,5-dihydro-1,3-oxazole [Compound 23]”, the “TBW, activity at 400 ppm against tobacco budworm” value in experiment [2] was “B (80-89)”. Further, in experiment [3], the “CL, activity at 400 ppm” value is “F (less than 50)”. In experiment [4] (ovicide method, cotton leaf discs, 6 days, rating of % Control), the “SM, activity at 2.5 ppm” value is “A (90-100)”.
